In brackets after ≈: the same amount, converted by molar mass. Read-outs that look alike come from different tables or passages of the source.
How the values were obtained:
Assay type in all cases: cell-based
Bacillus thuringiensis = details: for MIC: Bacillus thuringiensis
Bacillus subtilis = Bacillus subtilis MIC / MBC; details: for MBC: Bacillus subtilis NRRL: B-571, minimum bactericidal concentration; for MIC: Bacillus subtilis
Candida glabrata = Candida glabrata MIC / MFC; details: Nakaseomyces glabratus; for MIC: read-out: MIC; for MFC: minimum fungicidal concentration, read-out: MFC
[1] = system: Francisella tularensis subsp. Holarctica Strain LVSR NR-597; test: microbe, parasite or virus in culture
Trichophyton rubrum = test: MIC against Trichophyton rubrum; details: Trichophyton rubrum Castellani Sabouraud ATCC: 28188; read-out: MIC
[2] = system: Burkholderia thailandensis Brett et al ATCC: 700388; test: microbe, parasite or virus in culture
C. albicans = test: Candida albicans MIC / MFC
[3] = Bacillus thuringiensis Berliner ATCC: 10792
[4] = Bacillus thuringiensis Berliner ATCC: 10792, read-out: MIC
[5] = Bacillus subtilis (Ehrenberg 1835) Cohn 1872 NRRL: B-571, read-out: MIC
[6] = Candida glabrata #584 (Table 2)
[7] = strain B-1985, read-out: Bacillus subtilis MIC
[8] = strain B-3665, read-out: Bacillus subtilis MIC
[9] = strain B-14322, read-out: Bacillus subtilis MIC
[10] = strain B-41090, read-out: Bacillus subtilis MIC
[11] = strain B-41581, read-out: Bacillus subtilis MIC
[12] = strain BD-594, read-out: Bacillus subtilis MIC
[13] = C. glabrata strain #584 (Table 7)
[14] = C. albicans strain #761, read-out: MIC
[15] = C. albicans strain #762, read-out: MIC

| SMILES | MBC (Bacillus thuringiensis; [3]) [µg/mL] | MIC (Bacillus thuringiensis; [4]) [µg/mL] | MBC (Bacillus subtilis) [µg/mL] | MIC (Bacillus subtilis; [5]) [µg/mL] | MIC (Candida glabrata; [6]) [µg/mL] | MIC [1] [µg/mL] | MIC (Trichophyton rubrum) [µg/mL] | MIC [2] [µg/mL] | further results |
| --- | --- | --- | --- | --- | --- | --- | --- | --- | --- |
| COc1ccc(Sc2c[nH]c3ccccc23)cc1 [Compound 156O, 3-((4-methoxyphenyl)thio)-1H-indole] | > 50 | 6.25 (≈ 24.5 µM) | 12.5 (≈ 49 µM) | 6.25 (≈ 24.5 µM) | 50 (≈ 196 µM) | 3.13 (≈ 12.3 µM) | 3.19 (≈ 12.5 µM) |  |  |
| Brc1ccc(Sc2[nH]c3ccccc3c2Sc2ccc(Br)cc2)cc1 [Compound 156P, 2,3-bis((4-bromophenyl)thio)-1H-indole] | > 50 | 3.13 (≈ 6.37 µM) | > 50 | 12.5 (≈ 25.4 µM) | > 50 | > 50 | 6.11 (≈ 12.4 µM) |  |  |
| Cc1c(Sc2ccc(Br)cc2)[nH]c2ccccc12 [Compound 172B, 2-((4-bromophenyl)thio)-3-methyl-1H-indole] | 25 (≈ 78.6 µM) | 6.25 (≈ 19.6 µM) | 25 (≈ 78.6 µM) | 6.25 (≈ 19.6 µM) | 50 (≈ 157 µM) | 3.13 (≈ 9.84 µM) | 15.6 (≈ 49 µM) |  |  |
| Brc1ccc(Sc2c[nH]c3ccc(Br)cc23)cc1 [Compound 172D, 5-bromo-3-((4-bromophenyl)thio)-1H-indole] | 10 (≈ 26.1 µM) | 1.25 (≈ 3.26 µM) | 5 (≈ 13.1 µM) | 1.25 (≈ 3.26 µM) | > 50 | 1.25 (≈ 3.26 µM) | 1.18 (≈ 3.08 µM) | 100 (≈ 261 µM) | MBC [2]: > 150 µg/mL; MIC (Bacillus thuringiensis; ATCC10792, […]): 1.25 µg/mL (≈ 3.26 µM); MIC (Bacillus thuringiensis; strain B-1596): 2.5 µg/mL (≈ 6.53 µM); MIC (Bacillus subtilis; strain B-571 (Table 4), read-out: Bacillus subtilis MIC): 1.25 µg/mL (≈ 3.26 µM); MIC (Bacillus subtilis; [7]): 1.25 µg/mL (≈ 3.26 µM); MIC (Bacillus subtilis; [8]): 1.25 µg/mL (≈ 3.26 µM); MIC (Bacillus subtilis; [9]): 1.25 µg/mL (≈ 3.26 µM); MIC (Bacillus subtilis; [10]): 2.5 µg/mL (≈ 6.53 µM); MIC (Bacillus subtilis; [11]): 1.25 µg/mL (≈ 3.26 µM); MIC (Bacillus subtilis; [12]): 2.5 µg/mL (≈ 6.53 µM) |
| COC(=O)c1ccc2[nH]cc(Sc3ccc(Br)cc3)c2c1 [Compound 172G, methyl 3-((4-bromophenyl)thio)-1H-indole-5-carboxylate] | > 45 | 11.3 (≈ 31.2 µM) | 45 (≈ 124 µM) | 11.3 (≈ 31.2 µM) | > 50 |  | 18.1 (≈ 50 µM) |  |  |
| [O-][S+](c1ccc(Br)cc1)c1c[nH]c2ccc(Br)cc12 (stereo not shown) [Compound 172I, 5-bromo-3-((4-bromophenyl)sulfinyl)-1H-indole] | 40 (≈ 100 µM) | 10 (≈ 25.1 µM) | 10 (≈ 25.1 µM) | 10 (≈ 25.1 µM) | > 40 | 20 (≈ 50.1 µM) | 9.92 (≈ 24.9 µM) |  |  |
| O=S(=O)(c1ccc(Br)cc1)c1c[nH]c2ccc(Br)cc12 [Compound 172J, 5-bromo-3-((4-bromophenyl)sulfonyl)-1H-indole] | 3.13 (≈ 7.54 µM) | 1.56 (≈ 3.76 µM) | 6.25 (≈ 15.1 µM) | 3.13 (≈ 7.54 µM) | > 50 | 6.25 (≈ 15.1 µM) | 10.3 (≈ 24.8 µM) | > 50 |  |
| Brc1ccc(Sc2c[nH]c3cc(Br)c(Br)cc23)cc1 [Compound 174AB, 5,6-dibromo-3-((4-bromophenyl)thio)-1H-indole] | 8 (≈ 17.3 µM) | 2 (≈ 4.33 µM) | 16 (≈ 34.6 µM) | 4 (≈ 8.66 µM) | 3.13 (≈ 6.77 µM) | 4 (≈ 8.66 µM) |  | > 50 | MIC (Bacillus thuringiensis; strain B-1596): 4 µg/mL (≈ 8.66 µM); MIC (Bacillus subtilis; [7]): 4 µg/mL (≈ 8.66 µM); MIC (Bacillus subtilis; [8]): 2 µg/mL (≈ 4.33 µM); MIC (Bacillus subtilis; [9]): 2 µg/mL (≈ 4.33 µM); MIC (Bacillus subtilis; [10]): 4 µg/mL (≈ 8.66 µM); MIC (Bacillus subtilis; [11]): 2 µg/mL (≈ 4.33 µM); MIC (Bacillus subtilis; [12]): 4 µg/mL (≈ 8.66 µM); MIC (Candida glabrata; C. glabrata strain #325): > 50 µg/mL; MIC (Candida glabrata; [13]): 3.13 µg/mL (≈ 6.77 µM); MIC (C. albicans; [14]): > 50 µg/mL; MIC (C. albicans; [15]): > 50 µg/mL |
| FC(F)(F)c1ccc2[nH]cc(Sc3ccccc3Br)c2c1 [Compound 174AX, 3-((2-bromophenyl)thio)-5-(trifluoromethyl)-1H-indole] | 2 (≈ 5.37 µM) | 1 (≈ 2.69 µM) | 8 (≈ 21.5 µM) | 0.5 (≈ 1.34 µM) | 12.5 (≈ 33.6 µM) | 1 (≈ 2.69 µM) |  |  | MIC (Candida glabrata; C. glabrata strain #325): > 50 µg/mL; MIC (Candida glabrata; [13]): 12.5 µg/mL (≈ 33.6 µM); MFC (C. albicans; C. albicans strain #761, read-out: MFC): 50 µg/mL (≈ 134 µM); MIC (C. albicans; [14]): 12.5 µg/mL (≈ 33.6 µM); MFC (C. albicans; C. albicans strain #762, read-out: MFC): 12.5 µg/mL (≈ 33.6 µM); MIC (C. albicans; [15]): 6.25 µg/mL (≈ 16.8 µM) |
| Brc1ccc2[nH]cc(Sc3cccc4ccccc34)c2c1 [Compound 174G, 5-bromo-3-(naphthalen-1-ylthio)-1H-indole] | 3.13 (≈ 8.84 µM) | 1.56 (≈ 4.4 µM) | 50 (≈ 141 µM) | 1.56 (≈ 4.4 µM) | > 50 |  | 2.21 (≈ 6.24 µM) | > 50 |  |
| Brc1ccc(Sc2c[nH]c3c(Br)cccc23)cc1 [Compound 174H, 7-bromo-3-((4-bromophenyl)thio)-1H-indole] | 12.5 (≈ 32.6 µM) | 6.25 (≈ 16.3 µM) | > 50 | 3.13 (≈ 8.17 µM) | 12.5 (≈ 32.6 µM) | 3.13 (≈ 8.17 µM) | 2.38 (≈ 6.21 µM) | > 50 |  |
| Brc1ccc2[nH]cc(SCc3ccccc3)c2c1 [Compound 174K, 3-(benzylthio)-5-bromo-1H-indole] | 6.25 (≈ 19.6 µM) | 3.13 (≈ 9.84 µM) | 6.25 (≈ 19.6 µM) | 3.13 (≈ 9.84 µM) | 6.25 (≈ 19.6 µM) |  | 1.98 (≈ 6.22 µM) | > 50 | MFC (Candida glabrata; [6]): 12.5 µg/mL (≈ 39.3 µM) |
| Brc1ccc2[nH]cc(Sc3nc4ccccc4s3)c2c1 [Compound 174L, 2-((5-bromo-1H-indol-3-yl)thio)benzo[d]thiazole] | 50 (≈ 138 µM) | 1.56 (≈ 4.32 µM) | > 50 | 1.56 (≈ 4.32 µM) | > 50 |  | > 18 | > 50 |  |
| Brc1ccc(CSc2c[nH]c3ccc(Br)cc23)cc1 [Compound 174O, 5-bromo-3-((4-bromobenzyl)thio)-1H-indole] | 3.13 (≈ 7.88 µM) | 3.13 (≈ 7.88 µM) | > 50 | 3.13 (≈ 7.88 µM) | > 50 |  | 1.24 (≈ 3.12 µM) | > 50 |  |
| COc1ccc(Sc2c[nH]c3ccc(Br)cc23)cc1 [Compound 174Q, 5-bromo-3-((4-methoxyphenyl)thio)-1H-indole] | 12.5 (≈ 37.4 µM) | 1.56 (≈ 4.67 µM) | > 50 | 1.56 (≈ 4.67 µM) | 3.13 (≈ 9.36 µM) |  | 2.08 (≈ 6.22 µM) | > 50 | MFC (Candida glabrata; [6]): > 50 µg/mL |
| Brc1ccc2[nH]cc(Sc3ccc(-c4ccccc4)cc3)c2c1 [Compound 174R, 3-([1,1′-biphenyl]-4-ylthio)-5-bromo-1H-indole] |  | > 50 |  | > 50 | > 50 |  | > 9.5 | > 50 |  |
| Brc1ccc2[nH]cc(Sc3ccc4ccccc4c3)c2c1 [Compound 174S, 5-bromo-3-(naphthalen-2-ylthio)-1H-indole] |  | > 50 |  | > 50 | > 50 |  | > 8.82 | > 50 |  |
| Clc1cccc(Sc2c[nH]c3ccc(Br)cc23)c1Cl [Compound 174T, 5-bromo-3-((2,3-dichlorophenyl)thio)-1H-indole] | 2.5 (≈ 6.7 µM) | 1.25 (≈ 3.35 µM) | > 10 | 1.25 (≈ 3.35 µM) | 3.13 (≈ 8.39 µM) |  | 1.16 (≈ 3.11 µM) | > 50 | MFC (Candida glabrata; [6]): 25 µg/mL (≈ 67 µM) |
| Brc1ccc(Sc2c[nH]c3ccccc23)cc1 [Compound 174U, 3-((4-bromophenyl)thio)-1H-indole] | 12.5 (≈ 41.1 µM) | 12.5 (≈ 41.1 µM) | > 10 | > 50 | > 50 | 1.56 (≈ 5.13 µM) | 0.95 (≈ 3.12 µM) | > 50 |  |
| Nc1cccc(Sc2c[nH]c3ccc(Br)cc23)c1 [Compound 174Y, 3-((5-bromo-1H-indol-3-yl)thio)aniline] | > 10 | 10 (≈ 31.3 µM) | > 10 | 10 (≈ 31.3 µM) | 25 (≈ 78.3 µM) |  | 3.97 (≈ 12.4 µM) | > 50 |  |
| Nc1ccc(Sc2c[nH]c3ccc(Br)cc23)cc1 [Compound 174Z, 4-((5-bromo-1H-indol-3-yl)thio)aniline] | > 10 | 10 (≈ 31.3 µM) | > 10 | 10 (≈ 31.3 µM) | 25 (≈ 78.3 µM) |  | 3.97 (≈ 12.4 µM) | > 50 |  |

Reference: patent US11180452B2, “Methods and compositions for selectively inhibiting pathogenic microbes” (priority 2019, dated 2021)
